From PMC7160673, “A Degenerate Peptide Library Approach to Reveal Sequence Determinants of Methyllysine-Driven Protein Interactions” (Frontiers in Cell and Developmental Biology, 2020)
Where a SMILES comes first, the peptide text is derived from it. [ ]: non-standard residue; d: D form. The star is where a group is joined. 5FAM = O=C1OC2(c3ccc(O)cc3Oc3cc(O)ccc32)c2ccc(C(=O)*)cc21; Lys(Me3) = C[N+](C)(C)CCCC[C@H](N)C(=O)O

Key:
Assay type in all cases: binding
CDYL2 chromo [1] = target: T1, CDYL2 chromo (Homo sapiens, UniProt Q8N8U2); assay: Fluorescence polarization assay, CDYL2 chromo; settings: 10 nM N-terminal FAM peptide, 25 mM HEPES pH 7.5, 100 mM NaCl, 0.05% NP-40, average of 4 measurements from 2 independent experiments, error SD (Figure 4C)
T1 construct: 1-75; made in house; host or cells: E. coli BL21
T1 sequence (Q8N8U2 1-75): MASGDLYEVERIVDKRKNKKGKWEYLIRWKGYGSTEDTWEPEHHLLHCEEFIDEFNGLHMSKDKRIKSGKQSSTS
Method: Plasmids encoding N-terminal GST fusions of each reader domain (Supplementary Table S1) were transformed into BL21 E. coli and protein expression was induced with 0.5 mM IPTG at 16°C for 6–16 h. Induced bacterial pellets were suspended in 30 mL cold 1× PBS supplemented with 1 mM DTT and 1 mM PMSF. Next, bacteria were incubated with lysozyme (Thermo #89833 LOT#ta262343) and 1 μL of Pierce universal nuclease (Pierce #88702 LOT#00775219) on ice for 30 min followed by 3 rounds of sonication (30 s sonication with 10 s rest, all on ice) using a Qsonica ultrasonic processor (500 W 20 kHz with 1/8” microtip) at 40% amplitude. Lysed bacteria were centrifuged at 38465 rcf for 45 min at 4°C. Cleared supernatant was incubated with 5 mL of Glutathione resin (Thermo #16101 LOT#UD285112) with rotation at 4°C for 16 h. Bound protein was washed 3× with 10 mL cold 1× PBS and eluted twice with 10 mL of 25 mM HEPES pH 7.5, 10 mM L-glutathione (Sigma), and 100 mM NaCl. Protein was concentrated by centrifugation at 1,500 rpm on a Sorvall Legend X1 centrifuge in Amicon Ultra-15 centrifugal filter units (UFC#903024). Protein was resuspended in 25 mM HEPES pH 7.5 and 100 mM NaCl and concentrated by centrifugation as above three times. Protein was quantified by absorbance measurement at 280 nm divided by the computed extinction coefficient (ExPASy) ([Gasteiger et al., 2003]) of the GST-tagged protein domain.
Peptides functionalized with N-terminal 5-carboxyfluorescin (FAM) were synthesized by Genscript. All 7-mer motifs were synthesized with flanking glycines to mimic the Kme-OPL design. Binding assays were done in black 384 well plates (Corning #3575). […] Polarization was measured on a Synergy Neo fluorescence plate reader (Biotek) with a 485 ± 10 nm excitation filter and a 528 ± 10 nm emission filter. […] Anisotropy units (A) were calculated using the equation A = (2P)/(3-P). Dissociation constants were determined by non-linear regression analysis of anisotropy curves by specific binding with Hill slope in GraphPad version 8.3.0.

MPP8 chromo = target: T2, MPP8 chromo (Homo sapiens, UniProt Q99549); assay: Histone peptide microarray, MPP8 chromo; settings: normalized histone peptide array signal, hits; hybridization with 1 M MPP8 chromo (so in the source); two subarrays
T2 construct: 50-118; made in house; host or cells: E. coli BL21
T2 sequence (Q99549 50-118): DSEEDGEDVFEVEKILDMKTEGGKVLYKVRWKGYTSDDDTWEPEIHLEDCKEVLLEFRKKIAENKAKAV
Method: (§1) Peptide microarrays were fabricated using an Aushon 2470 microarrayer and used as described ([Cornett et al., 2017]) with the following modifications. Protein and antibody hybridization steps were performed in buffer containing 25 mM HEPES pH 7.5, 100 mM NaCl, 0.5% BSA (w/v), and 0.1% NP-40. Slides were washed 3 × 5 min in PBS supplemented with 0.1% Tween-20 between each hybridization step. Antibodies used were primary anti-GST (Sigma #7781, 1:2,000 dilution) and an AlexaFluor 647-labeled secondary antibody (Life Technologies A-21245, 1:5,000 dilution). […] Full lists of peptides queried by array analysis are in Supplementary Table S2.

CDYL2 chromo [2] = target: T1, CDYL2 chromo; assay: Histone peptide microarray, CDYL2 chromo; settings: normalized histone peptide array signal, hits; hybridization with 1 M CDYL2 chromo (so in the source); two subarrays
Method: as §1

53BP1 TTD = assay: Histone peptide microarray, 53BP1 TTD; settings: 53BP1 TTD hits, average signal per peptide
Summary of the method: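 Steps: print histone peptide microarray; incubate with protein or antibody in 25 mM HEPES pH 7.5, 100 mM NaCl, 0.5% BSA, 0.1% NP-40; wash three times for 5 min (PBS, 0.1% Tween-20); apply anti-GST at 1:2,000; wash; apply AlexaFluor 647-labeled secondary at 1:5,000; scan fluorescence.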

[3] = system: Millipore #07-449, anti-H3K27me3; assay: Histone peptide microarray, Millipore 07-449; settings: Millipore 07-449 (anti-H3K27me3) hits, average signal per peptide
CST 9733 (anti-H3K27me3) = assay: Histone peptide microarray, CST 9733; settings: histone peptide array signal normalized to the highest peptide average per subarray, hits; CST 9733 LOT:14 dilution 1:5,000
[4] = system: ABClonal #A2355, anti-H3K4me1; assay: Histone peptide microarray, ABclonal A2355; settings: Abclonal A2355 (anti-H3K4me1) hits
[5] = system: Active Motif #39161, anti-H3K9me3; assay: Histone peptide microarray, Active Motif 39161; settings: Active Motif 39161 (anti-H3K9me3) hits
[6] = system: Abcam #ab8895, anti-H3K4me1; assay: Histone peptide microarray, Abcam ab8895; settings: Abcam ab8895 (anti-H3K4me1) hits, average signal per peptide

Kd (CDYL2 chromo [1]) [µM]	Avg Signal (MPP8 chromo)	Avg Signal (CDYL2 chromo [2])	Molecule	Avg Signal (53BP1 TTD)	Avg Signal [3]	Avg Signal (CST 9733 (anti-H3K27me3))	Avg Signal [4]	Avg Signal [5]	Avg Signal [6]
3.6 ± 0.73	–	–	C[C@H](NC(=O)[C@H](CCCCN)NC(=O)CN)C(=O)N[C@@H](CCCCN)C(=O)N[C@@H](CCCC[N+](C)(C)C)C(=O)N[C@H](C(=O)NCC(=O)N[C@@H](CCCCN)C(=O)NCC(=O)O)[C@@H](C)O [GKAK(Kme3)TGKG] (H-GKAK[Lys(Me3)]TGKG-OH)	–	–	–	–	–	–
–	0.7903	0.4093	ARTK(Me3)QTAR(Me2s)K(Me3)STGGKAPRKQL-K(Biot)-NH2 [H3.1K4me3R8me2sK9me3]	0.09278	0.05738	0.01805	0.001264	0.5974	–
–	0.9552	1	Ac-TARK(Me2)STGGKAPRKQLATKAARK(Me2)SAP-Peg-K(Biot)-NH2 [H3.1K9me2K27me2]	–	0.009651	0.04684	0.0002867	0.0006693	0.004725

Second part, the molecule before the results:

Molecule	Kd (CDYL2 chromo [1]) [µM]	Avg Signal (MPP8 chromo)	Avg Signal (CDYL2 chromo [2])	Avg Signal (53BP1 TTD)	Avg Signal [3]	Avg Signal (CST 9733 (anti-H3K27me3))	Avg Signal [4]	Avg Signal [5]	Avg Signal [6]
ARTK(Me3)QTARK(Me3)STGGKAPRKQL-K(Biot)-NH2 [H3.1K4me3K9me3]	–	0.8973	0.4091	0.1303	0.1282	0.02074	0.008666	1	0.01482
ARTK(Me)QTARK(Me2)STGGKA-Peg-Biot [H3.1K4me1K9me2]	–	0.4754	0.2405	–	0.001269	0.0001122	0.6304	0.004399	0.7578
ARTKQTAR(Me2a)K(Me3)STGGKAPRKQL-K(Biot)-NH2 [H3.1R8me2aK9me3]	–	0.8359	0.3975	0.2106	0.01827	0.008858	0.0005778	0.6713	0.1096
ARTKQTARK(Me2)STGGK(Ac)APRKQL-K(Biot)-NH2 [H3.1K9me2K14ac]	–	0.7946	0.2985	–	0.00428	0.0003203	0.01354	0.00928	0.2875
ARTKQTAR(Me)K(Me3)STGGKAPRKQL-K(Biot)-NH2 [H3.1R8me1K9me3]	–	0.8612	0.4762	0.134	0.03826	0.005418	0.008113	0.7313	0.156
C[C@H](NC(=O)[C@@H](NC(=O)CNC(=O)c1ccc2c(c1)C(=O)OC21c2ccc(O)cc2Oc2cc(O)ccc21)[C@@H](C)O)C(=O)N[C@@H](CCCNC(=N)N)C(=O)N[C@@H](CCCC[N+](C)(C)C)C(=O)N[C@@H](CO)C(=O)N[C@H](C(=O)NCC(=O)NCC(=O)O)[C@@H](C)O [GTAR(Kme3)STGG] (5FAM-GTAR[Lys(Me3)]STGG-OH)	18.4 ± 6	–	–	–	–	–	–	–	–
C[C@H](NC(=O)[C@H](Cc1c[nH]c2ccccc12)NC(=O)CN)C(=O)N[C@@H](Cc1ccc(O)cc1)C(=O)N[C@@H](CCCC[N+](C)(C)C)C(=O)N[C@H](C(=O)NCC(=O)N[C@@H](CCCCN)C(=O)NCC(=O)O)[C@@H](C)O [GWAY(Kme3)TGKG] (H-GWAY[Lys(Me3)]TGKG-OH)	0.1 ± 0.0066	–	–	–	–	–	–	–	–
